Source: PubChem BioAssay (NCI)
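Five compound concentrations were applied to cells in 96-well plates for 48 hours; endpoints were derived by simple linear interpolation of the resulting dose-response curve. The concentration for 50% growth inhibition is given as GI50. TGI marks complete inhibition of growth.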

Legend:
Assay in all cases: NCI anticancer screen, dose series, 48 h
OVCAR-3 ovarian = system: OVCAR-3 ovarian
IGROV1 ovarian = system: IGROV1 ovarian
UACC-62 melanoma = system: UACC-62 melanoma
A498 renal = system: A498 renal
MOLT-4 leukemia = system: MOLT-4 leukemia
K-562 leukemia = system: K-562 leukemia
NCI/ADR-RES ovarian = system: NCI/ADR-RES ovarian
KM12 colon = system: KM12 colon
SK-MEL-5 melanoma = system: SK-MEL-5 melanoma
T-47D breast = system: T-47D breast

Row | SMILES | GI50 (OVCAR-3 ovarian) | TGI (OVCAR-3 ovarian) | GI50 (IGROV1 ovarian) | TGI (IGROV1 ovarian) | GI50 (UACC-62 melanoma) | TGI (UACC-62 melanoma) | GI50 (A498 renal) | TGI (A498 renal) | GI50 (MOLT-4 leukemia) | TGI (MOLT-4 leukemia) | GI50 (K-562 leukemia) | TGI (K-562 leukemia) | GI50 (NCI/ADR-RES ovarian) | TGI (NCI/ADR-RES ovarian) | GI50 (KM12 colon) | TGI (KM12 colon) | GI50 (SK-MEL-5 melanoma) | TGI (SK-MEL-5 melanoma) | GI50 (T-47D breast) | TGI (T-47D breast)
1 | CNC(=O)c1ccc(N2C(=S)N(c3cnc(C#N)c(C(F)(F)F)c3)C(=O)C23CCC3)cc1F | > 100000 nM | > 100 µM | > 100 µM | > 100 µM | > 70500 nM | > 100 µM | > 53.2 µM | > 100 µM | 61900 nM | > 100 µM | > 100000 nM | > 100 µM | > 100 µM | > 100 µM | > 100000 nM | > 100 µM | > 100000 nM | > 100 µM | 80.6 µM | > 100 µM
2 | COc1ccc(C2(Cl)c3ccccc3N(c3ccccc3)c3ccccc32)cc1 | 307 nM | 1.47 µM | 0.77 µM | 10.3 µM | 191 nM | 1.4 µM | – | – | 1830 nM | 11 µM | 335 nM | 12 µM | 2.05 µM | 10.5 µM | 1180 nM | 5.54 µM | 266 nM | 1.31 µM | 0.288 µM | 5.38 µM
3 | C[C@@H](Oc1cc(-n2cnc3ccc(OC4CCN(C)CC4)cc32)sc1C(N)=O)c1ccccc1Cl | 8.58 nM | 3.2 µM | 0.0622 µM | 6.88 µM | 33 nM | 4.62 µM | 0.0403 µM | 0.301 µM | 12.3 nM | 5.19 µM | 10.2 nM | 4.9 µM | 0.0955 µM | 3.58 µM | 8.86 nM | 2.97 µM | 30.6 nM | 0.777 µM | 3.57 µM | 8.73 µM
4 | O=C(O)CCNCC(=O)O | – | > 100 µM | – | > 100 µM | – | > 100 µM | – | > 100 µM | – | > 100 µM | – | > 100 µM | – | > 100 µM | – | > 100 µM | – | > 100 µM | – | > 100 µM
5 | O=C(CSc1nc2c(n1Nc1ccccc1)-c1ccccc1SC2)Nc1nc(-c2ccc(Cl)cc2)cs1 | 7340 nM | > 100 µM | 12.5 µM | 78.2 µM | 13500 nM | > 100 µM | 6.44 µM | 32.8 µM | > 100000 nM | > 100 µM | – | – | 25.5 µM | > 100 µM | > 100000 nM | > 100 µM | > 100000 nM | > 100 µM | 26.6 µM | > 100 µM
6 | Clc1c(Cl)[n+](Cc2ccc3ccccc3c2)cn1Cc1ccc2ccccc2c1 | 1340 nM | 2.69 µM | 1.33 µM | 2.93 µM | 1130 nM | 2.45 µM | 1.23 µM | 2.92 µM | – | – | 1710 nM | 3.73 µM | 16.3 µM | 38 µM | 1530 nM | 3.05 µM | 1130 nM | 2.39 µM | 0.504 µM | 2.09 µM
7 | O=C1NC(=C(Cl)Cl)/C(=N/S(=O)(=O)N2CCCCC2)N1 | 2090 nM | 3.78 µM | – | – | 1610 nM | 3.04 µM | 12.4 µM | 25.4 µM | – | – | – | – | 3.87 µM | 29.2 µM | 499 nM | 10.3 µM | – | – | 5.94 µM | 64.5 µM
8 | COc1cc(/C=C2\CC3C4CC=C5C[C@@H](OC(C)=O)CC[C@]5(C)C4CC[C@]3(C)C2=O)ccc1OCCN1CCCCC1 (stereo partly specified) | 2050 nM | 5.29 µM | – | – | 1990 nM | 3.66 µM | 1.71 µM | 5.07 µM | 1160 nM | 3.23 µM | 1230 nM | 3.31 µM | 3.56 µM | 6.89 µM | 1990 nM | 4.27 µM | 1710 nM | 3.08 µM | 2.98 µM | 13.1 µM
9 | CCOC(=O)Cc1c(C)c2cc(C(=O)c3ccccc3)c(O)cc2oc1=O | – | 53.8 µM | – | > 100 µM | – | > 100 µM | – | 80.2 µM | – | > 100 µM | – | 71.8 µM | – | 73.3 µM | – | – | – | 40 µM | – | 88.3 µM
10 | Cc1cc2nc(NCCN)n(Cc3ccc(F)c(Cl)c3)c2cc1C | 12800 nM | 27 µM | 11.7 µM | 27.5 µM | 13300 nM | 27.2 µM | – | – | 6420 nM | 22.1 µM | 2570 nM | 6.97 µM | 16.3 µM | 32.1 µM | 5280 nM | 18.6 µM | 14400 nM | 27.6 µM | 6.16 µM | 21.7 µM
11 | COc1ccc(C(=O)C(CN(C)C)CN(C)C)cc1 | 1290 nM | 2.57 µM | 15.4 µM | 39.2 µM | 5270 nM | 19.4 µM | 18.6 µM | 32.7 µM | – | – | – | – | 2.6 µM | 6.42 µM | 11900 nM | 27.3 µM | 15300 nM | 29 µM | 1.86 µM | 5.28 µM
12 | O=c1c2c(nc3n1CCS3)[nH]c1cc([N+](=O)[O-])ccc12 | 25500 nM | 81.2 µM | 36.2 µM | > 100 µM | > 100000 nM | > 100 µM | > 100 µM | > 100 µM | 81500 nM | > 100 µM | > 100000 nM | > 100 µM | > 100 µM | > 100 µM | > 100000 nM | > 100 µM | – | – | 45 µM | > 100 µM
13 | Cc1ccc(O)c(NC(=O)c2cccc(Nc3ccnc(C(F)(F)F)c3)c2)c1 | 15500 nM | 41.6 µM | 12.6 µM | 28.1 µM | 3820 nM | 20.7 µM | 5 µM | 20.5 µM | 2020 nM | 8.15 µM | – | – | 3 µM | 32.4 µM | 11000 nM | 24.8 µM | 2150 nM | 14 µM | 2.29 µM | 24 µM
14 | CC1Cc2c(Cl)ncnc2N(C)c2ccc(Cl)cc21 (stereo unspecified) | 210 nM | 0.477 µM | 0.468 µM | > 100 µM | 406 nM | 69.2 µM | 0.24 µM | 0.547 µM | 382 nM | > 100 µM | 496 nM | > 100 µM | 0.333 µM | 32.3 µM | – | – | 185 nM | 0.338 µM | 0.521 µM | > 100 µM
